{"source": "patent US5104865A", "about": "“Iron complexes of hydroxypyridones useful for treating iron overload” (National Research Development Corporation, priority 1983, dated 1992)", "key": {"[1]": {"test": "Affinity for iron(III) expressed as log Ksol", "assay_type": "physicochemical", "text": "In order to solubilise iron(III) hydroxide, log Ksol must be greater than 0 and in order to remove iron from transferrin, log Ksol should be in excess of 6.0. The log Ksol values for the single ring compounds 3-hydroxyl-1-methylpyrid-2-one and 1,2-dimethyl-3-hydroxypyrid-4-one, by way of example, are 10.0 and 9.5, respectively, thus comparing favourably with those of the bidentate hydroxamates at about 4.0, of catechols at about 8.0, of desferrioxamine at 6.0, and of diethylenetriamine penta-acetic acid (DTPA) at 2.0."}, "[2]": {"molecular_target": "T1, Horse spleen ferritin (Equus caballus, UniProt P02791)", "T1 construct": "purchased Sigma; host or cells: horse spleen", "T1 sequence (P02791 2-175 limits assumed)": "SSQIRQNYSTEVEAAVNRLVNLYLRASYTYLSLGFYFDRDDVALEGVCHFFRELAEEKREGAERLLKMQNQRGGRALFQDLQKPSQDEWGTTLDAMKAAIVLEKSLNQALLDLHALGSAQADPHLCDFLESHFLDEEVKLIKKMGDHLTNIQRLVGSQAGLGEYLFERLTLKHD", "test": "Mobilisation of iron from ferritin", "assay_type": "biochemical", "conditions": "25° C., pH 7.4", "procedure": "Horse spleen ferritin (Sigma) was used without further purification and its iron content was estimated spectrophotometrically at 420 nm. The ferritin solution in phosphate buffered saline (Dulbecco-OXOID, 10^-6 M, pH 7.4) was incubated at 25° C. with the compound at 10^-4 M for 6 and 24 hours. Apoferritin (in admixture with ferritin) and the particular linked hydroxypyridone Fe^(III) complex were separated by chromatography on Sephadex G10. The absorption spectra of the high and low molecular weight fractions were recorded and the percentage of iron removed from the ferritin was calculated and is reported in Table 3. For comparative purposes, the procedure was repeated using a blank control, and also with the single ring, bidentate compound 1-ethyl-3-hydroxypyrid-4-one (at 10^-3 M). In addition, results reported in the literature for similar tests with 1×10^-3 M desferrioxamine (Crichton et al, J. Inorganic Biochem., 1980, 13, 305) and with 6×10^-3 M LICAMS (Tufano et al, Biochem. Biophys. Acta, 1981, 668, 420 ) are also given in the Table."}, "[3]": {"molecular_target": "T2, Human transferrin (Homo sapiens, UniProt P02787)", "T2 construct": "purchased Sigma", "T2 sequence (P02787 20-698)": "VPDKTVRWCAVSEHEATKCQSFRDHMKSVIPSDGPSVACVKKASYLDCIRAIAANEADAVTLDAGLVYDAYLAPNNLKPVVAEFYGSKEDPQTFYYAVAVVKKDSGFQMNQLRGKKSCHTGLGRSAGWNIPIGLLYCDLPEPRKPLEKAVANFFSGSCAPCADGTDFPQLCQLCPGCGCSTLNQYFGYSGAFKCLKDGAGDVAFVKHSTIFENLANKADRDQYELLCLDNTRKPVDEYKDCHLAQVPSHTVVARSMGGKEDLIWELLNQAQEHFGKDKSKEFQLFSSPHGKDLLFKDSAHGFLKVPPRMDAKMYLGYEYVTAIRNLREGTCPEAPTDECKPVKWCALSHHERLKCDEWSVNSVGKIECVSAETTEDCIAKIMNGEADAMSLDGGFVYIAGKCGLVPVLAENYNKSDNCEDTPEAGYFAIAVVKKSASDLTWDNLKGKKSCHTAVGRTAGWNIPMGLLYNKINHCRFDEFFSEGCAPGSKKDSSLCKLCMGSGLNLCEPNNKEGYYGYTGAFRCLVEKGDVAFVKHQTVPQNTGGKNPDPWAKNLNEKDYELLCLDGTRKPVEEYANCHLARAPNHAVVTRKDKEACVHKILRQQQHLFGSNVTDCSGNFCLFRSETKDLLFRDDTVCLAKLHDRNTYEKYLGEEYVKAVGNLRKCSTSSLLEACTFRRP", "test": "Mobilisation of iron from transferrin", "assay_type": "biochemical", "conditions": "for Percentage of iron removed from transferrin after 6 hours: compound 4×10^-3 M, 59Fe(III) transferrin 10^-5 M, tris HCl 0.1M pH 7.4, 6 hours", "procedure": "Human transferrin (Sigma) was loaded with iron(III) by the method of Bates and Schlaback, J. Biol. Chem. (1973) 248, 3228. ^59 Iron (III) transferrin (10^-5 M) was incubated with a 4×10^-3 M solution in tris HCl (0.1M, pH 7.4) of one of various pyridones as indicated in Table 4 for periods of 6 hours."}, "[4]": {"conditions": "100 uM, pH 7.4", "description": "(§1) The partition coefficient Kpart, being the ratio (concentration of compound in n-octanol)/(concentraction of compound in aqueous phase) on partition between n-octanol and aqueous tris hydrochloride (20 mM, pH 7.4), is measured by spectrophotometry at 20° C. for various of the compounds of the previous Examples and for their iron(III) complexes (at 10^-4 M). […] Acid washed glassware is used throughout and, following mixing of 5 ml of the 10^-4 M aqueous solution with 5 ml n-octanol for 1 minute, the aqueous n-octanol mixture is centrifuged at 1,000 g for 30 seconds. The two resulting phases are separated for a concentration determination by spectrophotometry on each. For the metal-free linked hydroxypyridone compounds, the range 220-340 nm is used for concentration determinations whilst for the iron complexes, the range 340-640 nm is used."}, "[5]": {"test": "Partition coefficient Kpart between n-octanol and aqueous tris hydrochloride", "conditions": "n-octanol/tris hcl, pH 7.4", "description": "as §1"}, "[6]": {"molecular_target": "T1, Horse spleen ferritin", "conditions": "similar test, cited from earlier work"}, "[7]": {"test_system": "inverted rat jejunal sac", "test": "Permeation of inverted rat jejunal sac by iron complexes", "assay_type": "in vitro ADME", "conditions": "relative to ferric chloride as 1; 59Fe complexes, 37° C., up to 1 hour", "text": "Rats (male Sprague Dawley, 60 g) were killed and the jejunum removed, everted and cut into three segments (4 cm length). […] The contents of the sac were counted for ^59 Fe and measured spectrophotometrically."}, "[8]": {"test_system": "human erythrocytes", "test": "Permeation of 59Fe labelled iron complexes into human erythrocytes", "assay_type": "cell-based", "conditions": "59Fe complex 10^-3 M, 5% erythrocyte suspension, 1 hour, 37° C., pH 7.4; mean of at least three determinations", "description": "The accumulation of iron by human erythrocytes which are associated with the iron complexes of three compounds described in earlier Examples was studied by incubating for 1 hour at 37° C. a 5% suspension of erythrocytes in a medium consisting of the ^59 Fe labelled iron complex^(1) (10^-3 M) in aqueous sodium chloride (130 mM) buffered to pH 7.4 by tris hydrochloride (2 ml). Following this period of incubation, an aliquot of the erythrocyte/medium mixture was placed above a layer of silicone oil and the erythrocytes separated by centrifugation through the oil. The ^59 Fe levels associated with the erythrocytes and the incubation medium were then counted. By way of comparison, a similar experiment was concluded with ferric citrate."}}, "note": "Read-outs that look alike come from different tables or passages of the source.", "data": [{"molecule": "Cc1c(O)c(=O)ccn1C", "note": "[1,2-dimethyl-3-hydroxypyrid-4-one]", "values": [{"measurement": "log Ksol", "setting": "[1]", "result": 9.5}]}, {"molecule": "CCn1ccc(=O)c(O)c1", "note": "[1-ethyl-3-hydroxypyrid-4-one, reference compound]", "values": [{"measurement": "Percentage of iron removed from ferritin, 6 hours", "setting": "[2]; compound 10^-3 M", "result": 25, "unit": "%"}, {"measurement": "Percentage of iron removed from ferritin, 24 hours", "setting": "[2]; compound 10^-3 M", "result": 44, "unit": "%"}]}, {"molecule": "Cn1cccc(O)c1=O", "note": "[3-hydroxyl-1-methylpyrid-2-one]", "values": [{"measurement": "log Ksol", "setting": "[1]", "result": 10.0}]}, {"molecule": "O=C(Cn1cccc(O)c1=O)NCCCCCCNC(=O)Cn1cccc(O)c1=O", "note": "[Compound 4, 1,6-di-(3-hydroxy-2-oxopyrid-1-ylacetamido)-hexane]", "values": [{"measurement": "Percentage of iron removed from ferritin, 6 hours", "setting": "[2]; compound 10^-4 M", "result": "< 1", "unit": "%"}, {"measurement": "Percentage of iron removed from ferritin, 24 hours", "setting": "[2]; compound 10^-4 M", "result": 3, "unit": "%"}]}, {"molecule": "O=C(Cn1cccc(O)c1=O)NCCCCCCCCNC(=O)Cn1cccc(O)c1=O", "note": "[Compound 5]", "values": [{"measurement": "Percentage of iron removed from transferrin after 6 hours", "setting": "[3]", "result": 32, "unit": "%"}, {"measurement": "Partition coefficient Kpart, iron complex [Fe^III -(compound)3 ]", "setting": "[4]", "result": 0.10}, {"measurement": "logD at 100 µM", "setting": "[5]", "result": -1.77}]}, {"molecule": "O=C(Cn1cccc(O)c1=O)NCCN(CCNC(=O)Cn1cccc(O)c1=O)CCNC(=O)Cn1cccc(O)c1=O", "note": "[Compound 8]", "values": [{"measurement": "Percentage of iron removed from ferritin, 6 hours", "setting": "[2]; compound 10^-4 M", "result": 3, "unit": "%"}, {"measurement": "Percentage of iron removed from ferritin, 24 hours", "setting": "[2]; compound 10^-4 M", "result": 10, "unit": "%"}, {"measurement": "Percentage of iron removed from transferrin after 6 hours", "setting": "[3]", "result": 40, "unit": "%"}, {"measurement": "Removal of iron from transferrin, comparison in words", "setting": "[3]; versus desferrioxamine and EDTA", "result": "markedly better results than desferrioxamine or EDTA"}, {"measurement": "Partition coefficient Kpart, iron complex [Fe^III -(compound)3 ]", "setting": "[4]", "result": 0.03}, {"measurement": "logD at 100 µM", "setting": "[5]", "result": -1.7}]}, {"molecule": "O=C(Cn1cccc(O)c1=O)NCCCN(CCCNC(=O)Cn1cccc(O)c1=O)C(=O)Cn1cccc(O)c1=O", "note": "[Compound 10, N-(3-hydroxy-2-oxopyrid-1-ylacetyl)-N-[3-(3-hydroxy-2-oxopyrid-1-ylacetamido)-propyl]-3-(3-hydroxy-2-oxopyrid-1-ylacetamido)-propylamine]", "values": [{"measurement": "Partition coefficient Kpart, iron complex [Fe^III -(compound)3 ]", "setting": "[4]", "result": 0.3}, {"measurement": "logD at 100 µM", "setting": "[5]", "result": -0.699}]}, {"molecule": "O=C(O)CN(CCN(CC(=O)O)CC(=O)O)CCN(CC(=O)O)CC(=O)O", "note": "[DTPA, diethylenetriamine penta-acetic acid]", "values": [{"measurement": "log Ksol", "setting": "[1]", "result": 2.0}]}, {"molecule": "CC(=O)N(O)CCCCCNC(=O)CCC(=O)N(O)CCCCCNC(=O)CCC(=O)N(O)CCCCCN", "note": "[Desferrioxamine, desferrioxamine]", "values": [{"measurement": "Percentage of iron removed from transferrin after 6 hours", "setting": "[3]", "result": 17, "unit": "%"}, {"measurement": "log Ksol", "setting": "[1]", "result": 6.0}, {"measurement": "Percentage of iron removed from ferritin, 6 hours", "setting": "[6]; 10^-3 M, literature value (Crichton et al 1980)", "result": 1.2, "unit": "%"}]}, {"molecule": "O=C(O)CN(CCN(CC(=O)O)CC(=O)O)CC(=O)O", "note": "[EDTA, ethylenediamine tetra-acetic acid, reference compound]", "values": [{"measurement": "Percentage of iron removed from transferrin after 6 hours", "setting": "[3]", "result": 27, "unit": "%"}]}, {"molecule": "[Cl][Fe]([Cl])[Cl]", "note": "[FeCl3, ferric chloride]", "values": [{"measurement": "Relative iron uptake into serosal space of jejunal sac", "setting": "[7]", "result": 1}]}, {"molecule": "O=C(NCCCCN(CCCNC(=O)c1cc(S(=O)(=O)O)cc(O)c1O)C(=O)c1cc(S(=O)(=O)O)cc(O)c1O)c1cc(S(=O)(=O)O)cc(O)c1O", "note": "[LICAMS]", "values": [{"measurement": "Percentage of iron removed from ferritin, 6 hours", "setting": "[6]; 6 × 10^-3 M, literature value (Tufano et al 1981)", "result": 0, "unit": "%"}]}, {"molecule": "ferric citrate [Fe^III citrate]", "values": [{"measurement": "Amount of complex entering erythrocytes", "setting": "[8]", "result": "< 5", "unit": "n.mole"}]}]}
